The source of these data is US9365522B2, “Pyrazole amide derivative” (AMGEN INC., priority 2015, dated 2016).

For this assay, the target named is T1, ligand binding domain of human ROR gamma (Homo sapiens, UniProt P51449).
T1 construct: NM_001001523; expressed in transfected cells; host or cells: HEK293T
T1 sequence (P51449 247-497 isoform P51449-2): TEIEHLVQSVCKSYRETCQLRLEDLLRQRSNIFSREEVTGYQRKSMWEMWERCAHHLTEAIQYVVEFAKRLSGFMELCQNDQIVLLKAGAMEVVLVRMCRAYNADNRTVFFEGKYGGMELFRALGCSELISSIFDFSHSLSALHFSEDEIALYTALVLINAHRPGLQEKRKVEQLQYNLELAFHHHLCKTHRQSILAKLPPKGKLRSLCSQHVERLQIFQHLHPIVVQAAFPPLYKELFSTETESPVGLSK
Description: ROR gamma reporter gene assay (GAL4-RORγ LBD luciferase, Dual-Glo). In kind it is cell-based. The note with it: HEK293T cells transfected with pM-ROR gamma, 8 concentrations 3.5 nM to 10.5 μM, 24 h incubation; read-out: result (pIC50, inhibition of RORγ transcriptional activity) (converted). The procedure:
Luciferase reporter gene assay was used to assess inhibition of RORγ transcriptional activity.
ROR gamma expression vector was prepared by inserting the ligand binding domain of human ROR gamma (amino acid 247-497 of Genbank Accession NO. NM_001001523) adjacent to the yeast GAL4 transcription factor DNA binding domain in the expression vector pM (Clontech). The resulting expression vector pM-ROR gamma was used in transfection experiments together with the pGL4 luciferase reporter plasmid (Promega) containing five copies of the UAS GAL4 recognition site and pRL-CMV plasmids (Promega) containing the constitutive CMV promoter and the renilla luciferase.
For preparing transfection reagent/DNA mixture, 1 μg pM-ROR gamma, 1 μg pGL4 5×UAS, 625 pg pRL-CMV and 6.25 μL FuGENE™ HD transfection reagent (Promega) were mixed in 0.25 mL OPTI-MEM™ (Life technologies) at room temperature. At the same time, Negative control DNA mixture was prepared by using 1 μg pM empty vector instead of pM-ROR gamma plasmid. After a fifteen minute incubation, 0.25 mL of transfection reagent/DNA mixture was added to 1,000,000 of HEK293T cells (ATCC) in 5 mL of OPTI-MEM™ containing 10% Charcoal Stripped Fetal Bovine Serum.
Transfected cells were seeded onto 384 well plate (10 μL/well) and the 7.5 nL of test compounds were added to the wells in 8 concentrations ranging from 3.5 nM to 10.5 μM. The compounds were dissolved in 100% DMSO and the final concentration of DMSO in the assay was 0.075%.
After 24 h of incubation at 37° C., 5% CO2 in a cell culture incubator, the Dual-Glo™ Luciferase Assay System was used to detect activity according to the manufacturer's instructions (Promega, Cat. No.: E2920).
Data was plotted and pIC50 values were calculated using the XLfit program (ID Business Solutions Ltd.).
(In general: In a reporter assay the amount or activity of a reporter protein is the signal.)
Turning to `CC(=O)Nc1cccc(Cl)c1C(=O)CN(Cc1cc(F)cc(F)c1)C(=O)c1cnn([C@H]2CC[C@H](C(=O)O)CC2)c1C(F)(F)F` [Example 13, trans-4-(4-((2-(2-acetamido-6-chlorophenyl)-2-oxoethyl)(3,5-difluorobenzyl)carbamoyl)-5-(trifluoromethyl)-1H-pyrazol-1-yl)cyclohexanecarboxylic acid], the IC50 is 93300 pM. On to `O=C(CN(Cc1cc(F)cc(F)c1)C(=O)c1cnn([C@H]2CC[C@H](C(=O)O)CC2)c1C(F)(F)F)c1c(O)cccc1Cl` [Example 15, trans-4-(4-((2-(2-chloro-6-hydroxyphenyl)-2-oxoethyl)(3,5-difluorobenzyl)carbamoyl)-5-(trifluoromethyl)-1H-pyrazol-1-yl)cyclohexanecarboxylic acid], for which the IC50 was 95500 pM.

Turning to `CC1(C)CC[C@H](CN(CC(=O)c2c(Cl)cncc2Cl)C(=O)c2cnn([C@H]3CC[C@H](C(=O)O)CC3)c2C(F)(F)F)O1` [Example 16, trans-4-(4-((2-(3,5-dichloropyridin-4-yl)-2-oxoethyl)(((R)-5,5-dimethylTHF-2-yl)methyl)carbamoyl)-5-(trifluoromethyl)-1H-pyrazol-1-yl)cyclohexanecarboxylic acid], the IC50 was 117000 pM. `O=C(CN(Cc1cc(F)cc(F)c1)C(=O)c1cnn([C@H]2CC[C@H](C(=O)O)CC2)c1C1CC1)c1c(Cl)cncc1Cl` [Example 17, trans-4-(5-cyclopropyl-4-((2-(3,5-dichloropyridin-4-yl)-2-oxoethyl)(3,5-difluorobenzyl)carbamoyl)-1H-pyrazol-1-yl)cyclohexanecarboxylic acid]: the IC50 is 24500 pM. As for `O=C(CN(Cc1cc(F)cc(F)c1)C(=O)c1cnn([C@H]2CC[C@H](C(=O)O)CC2)c1C(F)(F)F)c1c(Cl)cc(C(F)F)cc1Cl` [Example 18, trans-4-(4-((2-(2,6-dichloro-4-(difluoromethyl)phenyl)-2-oxoethyl)(3,5-difluorobenzyl)carbamoyl)-5-(trifluoromethyl)-1H-pyrazol-1-yl)cyclohexanecarboxylic acid], the IC50 was 11700 pM. Under `CC1(O)CCC(CN(CC(=O)c2c(Cl)cncc2Cl)C(=O)c2cnn([C@H]3CC[C@H](C(=O)O)CC3)c2C(F)(F)F)CC1` (stereo partly drawn) [Example 19, trans-4-(4-((2-(3,5-dichloropyridin-4-yl)-2-oxoethyl)((4-hydroxy-4-methylcyclohexyl)methyl)carbamoyl)-5-(trifluoromethyl)-1H-pyrazol-1-yl)cyclohexanecarboxylic acid] stands > 1e+07 pM; under `O=C(CN(Cc1cc(F)cc(F)c1)C(=O)c1cnn([C@H]2CC[C@H](C(=O)O)CC2)c1C(F)F)c1c(Cl)cncc1Cl` [Example 20, trans-4-(4-((2-(3,5-Dichloropyridin-4-yl)-2-oxoethyl)(3,5-difluorobenzyl)carbamoyl)-5-(difluoromethyl)-1H-pyrazol-1-yl)cyclohexanecarboxylic acid], 70800 pM. Consider `Nc1nccc(Cl)c1C(=O)CN(Cc1cc(F)cc(F)c1)C(=O)c1cnn([C@H]2CC[C@H](C(=O)O)CC2)c1C(F)(F)F` [Example 21, trans-4-(4-((2-(2-amino-4-chloropyridin-3-yl)-2-oxoethyl)(3,5-difluorobenzyl)carbamoyl)-5-(trifluoromethyl)-1H-pyrazol-1-yl)cyclohexanecarboxylic acid], for which the IC50 was > 1e+07 pM.

For the molecule `N#Cc1ccccc1CN(CC(=O)c1c(Cl)cncc1Cl)C(=O)c1cnn([C@H]2CC[C@H](C(=O)O)CC2)c1C(F)(F)F` [Example 22, trans-4-(4-((2-cyanobenzyl)(2-(3,5-dichloropyridin-4-yl)-2-oxoethyl)carbamoyl)-5-(trifluoromethyl)-1H-pyrazol-1-yl)cyclohexanecarboxylic acid], the IC50 is > 1e+07 pM. For `CC1(C)CC(CN(CC(=O)c2c(Cl)cncc2Cl)C(=O)c2cnn([C@H]3CC[C@H](C(=O)O)CC3)c2C(F)(F)F)C1` [Example 23, trans-4-(4-((2-(3,5-dichloropyridin-4-yl)-2-oxoethyl)((3,3-dimethylcyclobutyl)methyl)carbamoyl)-5-(trifluoromethyl)-1H-pyrazol-1-yl)cyclohexanecarboxylic acid], the IC50 was 24000 pM.

On to `O=C(O)C1CCC(n2ncc(C(=O)N(CCc3c(Cl)cncc3Cl)Cc3ccc(F)cc3)c2C(F)(F)F)CC1` (stereo not drawn) [Example 24, 4-(4-((2-(3,5-dichloropyridin-4-yl)ethyl)(4-fluorobenzyl)carbamoyl)-5-(trifluoromethyl)-1H-pyrazol-1-yl)cyclohexanecarboxylic acid], for which the IC50 is 166000 pM. Turning to `O=C(CN(Cc1ccc(F)cc1)C(=O)c1cnn([C@H]2CC[C@@H](C(=O)O)CC2)c1C(F)(F)F)c1c(Cl)cncc1Cl` [Example 25, cis-4-(4-((2-(3,5-dichloropyridin-4-yl)-2-oxoethyl)(4-fluorobenzyl)carbamoyl)-5-(trifluoromethyl)-1H-pyrazol-1-yl)cyclohexaneca rboxylic acid], the IC50 was 263000 pM. Under `CC(C)CN(CC(=O)c1c(Cl)cncc1Cl)C(=O)c1cnn([C@H]2CC[C@H](C(=O)O)CC2)c1C(F)(F)F` [Example 26, trans-4-(4-((2-(3,5-dichloropyridin-4-yl)-2-oxoethyl)(isobutyl)carbamoyl)-5-(trifluoromethyl)-1H-pyrazol-1-yl)cyclohexanecarboxylic acid] stands 282000 pM. Consider `CC(C)(C)CN(CC(=O)c1c(Cl)cncc1Cl)C(=O)c1cnn([C@H]2CC[C@H](C(=O)O)CC2)c1C(F)(F)F` [Example 27, trans-4-(4-((2-(3,5-dichloropyridin-4-yl)-2-oxoethyl)(neopentyl)carbamoyl)-5-(trifluoromethyl)-1H-pyrazol-1-yl)cyclohexanecarboxylic acid], for which the IC50 is 56200 pM. As for `O=C(CN(CC1CCC1)C(=O)c1cnn([C@H]2CC[C@H](C(=O)O)CC2)c1C(F)(F)F)c1c(Cl)cncc1Cl` [Example 28, trans-4-(4-((cyclobutylmethyl)(2-(3,5-dichloropyridin-4-yl)-2-oxoethyl)carbamoyl)-5-(trifluoromethyl)-1H-pyrazol-1-yl)cyclohexanecarboxylic acid], the IC50 is 195000 pM. Under `O=C(CN(CC1CCCC1)C(=O)c1cnn([C@H]2CC[C@H](C(=O)O)CC2)c1C(F)(F)F)c1c(Cl)cncc1Cl` [Example 29, trans-4-(4-((cyclopentylmethyl)(2-(3,5-dichloropyridin-4-yl)-2-oxoethyl)carbamoyl)-5-(trifluoromethyl)-1H-pyrazol-1-yl)cyclohexanecarboxylic acid] stands 75900 pM; under `O=C(CN(CC1CCCCC1)C(=O)c1cnn([C@H]2CC[C@H](C(=O)O)CC2)c1C(F)(F)F)c1c(Cl)cncc1Cl` [Example 30, trans-4-(4-((cyclohexylmethyl)(2-(3,5-dichloropyridin-4-yl)-2-oxoethyl)carbamoyl)-5-(trifluoromethyl)-1H-pyrazol-1-yl)cyclohexanecarboxylic acid], 46800 pM. Regarding `CC1(CN(CC(=O)c2c(Cl)cncc2Cl)C(=O)c2cnn([C@H]3CC[C@H](C(=O)O)CC3)c2C(F)(F)F)CC1` [Example 31, trans-4-(4-((2-(3,5-dichloropyridin-4-yl)-2-oxoethyl)((1-methylcyclopropyl)methyl)carbamoyl)-5-(trifluorornethyl)-1H-pyrazol-1-yl)cyclohexanecarboxylic acid], the IC50 was 77600 pM.
